“Also recorded” adds a separate entry of the source. Read-outs that look alike come from different tables or passages of the source.
Tests used:
[1] = system: HCECs; test: Endocytosis mechanism of 289WP/Ranibizumab composition (temperature, endocytosis inhibitors), HCECs; format: cell-based, human; conditions: Mixture without inhibition = 100%
Method: (§1) The uptake amount of 289WP-FAM or Cy5-Rani in the Mixture without inhibition is used as control (100%). Significant differences were analyzed by 1-tailed ANOVA, corrected by Dunnett's test (n=3, ^nsp>0.05, *p<0.05, **p<0.01, ***p<0.001).

[2] = system: ARPE-19 cells; test: Endocytosis mechanism of 289WP/Ranibizumab composition (temperature, endocytosis inhibitors), ARPE-19; format: cell-based, human; conditions: Mixture without inhibition = 100%
Method: as §1

[3] = rabbit, in vivo
Method: Firstly, eye drops were prepared. Polypeptide/Aflibercept composition was prepared by diluting Aflibercept (40 mg/mL) to 20 mg/mL with a commercially available Aflibercept injection solvent, dissolving polypeptide 289WP to 6.16 mg/mL with this solution, and storing at 4° C. for use. Before being used, the composition was incubated for at least 24 h at 4° C., and kept standing at room temperature for 1 h.
Next, the administration and sampling protocol were determined. Healthy male rabbits each about 1 kg were selected, eyes of which were ensured to be normal by ophthalmic examination before the experiment. The experimental process follows the ethical specifications of experimental animals. Each eye of the rabbit was dripped with 30 μL of different composition solutions containing 600 μg of Aflibercept per eye. Ocular tissue samples were taken at 1 h after administration.
Subsequently, the Aflibercept concentrations in tissues were determined. The ELISA plate coated with antigen (hVEGF-A165) was prepared, as well as the extracted tissues (total protein extraction solution of blood plasma, aqueous humor, vitreous humor and retina). […]
The concentrations of Aflibercept in tissues were measured at 1 h after administration. Significant differences were analyzed by 2-tailed unpaired t-test (^nsp>0.05, *p<0.05).

[4] = system: HCECs, ARPE-19 and HUVECs; test: Cell uptake of polypeptide/Ranibizumab compositions at different molar ratios; format: cell-based, human; conditions: 89WP:Ranibizumab molar ratio 5:1 to 18:1; 3 kinds of cells; 1 μM Cy5-Rani; 2 h, 37° C.
Method: First, Ranibizumab was fluorescently labeled. […] After the addition of 0.12 mg fluorescence labeling reagent Sulfo-Cy5-NHS, the solution was stirred and reacted overnight under the condition of 4° C.
Next, a polypeptide/Ranibizumab composition was prepared. Appropriate amount of polypeptide was weighed and dissolved by using a certain volume of commercially available Ranibizumab injection.
(§2) Well-grown cells HCECs, ARPE-19 and HUVECs were taken and plated respectively in a 24-well plate at 1×10^4 cells/well. After incubating for 24 h, the culture solution was discarded, and solutions of different compositions of polypeptide/Cy5-Rani mixture (containing 1 μM of Cy5-Rani) were added and incubated for 2 h at 37° C. The drug solution was then discarded, and the cells were washed 3 times with 10 mM PBS (containing 0.02 mg/mL heparin sodium), collected, and resuspended in 10 mM PBS. Flow cytometer was used for detecting positive cell rate and mean fluorescence intensity, with detecting channel excitation wavelength of 638 nm and emission wavelength of 660 nm.
Significance analysis was performed using One-Way ANOVA test, corrected by Tukey's test (n=3, ^nsp>0.05, *p<0.05, **p<0.01, ***p<0.001).

[5] = system: ARPE-19 cells; test: Uptake of 89WP/nanoantibody compositions at different ratios, flow cytometry; format: cell-based, human; conditions: 89WP:nanoantibody molar ratio 5:1 to 50:1; 2 h
Method: 89WP/nanoantibody eye drops were prepared according to the proportion in Table 5, and incubated overnight at 4° C. for later use.
The ARPE-19 cells were plated in a 24-well plate and cultured for over 24 h. The culture solution was then discarded, and 200 μL of the drug solution and 300 μL of serum-free culture solution were added into each well. After 2 h of incubation, the drug solution was discarded, and the cells were washed 3 times with PBS, digested and resuspended in PBS. Flow cytometer was used for detecting Cy5 fluorescence signals (Ex: 645 nm, Em: 665 nm).

[6] = system: HCECs; test: Cell uptake of Ranibizumab mediated by different polypeptides, HCECs; format: cell-based, human; conditions: for increase of mean fluorescence intensity compared with free antibodies: 10 μM polypeptide + 1 μM Cy5-Rani (10:1), freshly prepared, 2 h, 37° C.; for mean fluorescence intensity of cells, comparison between polypeptides: composition solutions stored at 4° C. for 7 days; for cell uptake of Ranibizumab mediated by polypeptide, comparison between polypeptides: molar ratio 10:1, freshly prepared
Method: as §2, with “nm. […] 10 μM of different polypeptides were mixed with 1 μM Cy5-Rani, respectively, and incubated at 4° C. for 24 h to obtain composition solutions. Before the detection, the composition solutions were incubated at 37° C. with different cells for 2 h, or the composition solutions were stored at 4° C. for 7 days and then incubated with the cells. Flow cytometer was used for detecting the mean fluorescence intensity values of cells (Ex 638 nm/Em 660 nm).” for “nm.”

[7] = system: ARPE-19 cells; test: Cell uptake of Ranibizumab mediated by different polypeptides, ARPE-19; format: cell-based, human; conditions: for increase of mean fluorescence intensity compared with free antibodies: 10 μM polypeptide + 1 μM Cy5-Rani (10:1), freshly prepared, 2 h, 37° C.; for mean fluorescence intensity of cells, comparison between polypeptides: composition solutions stored at 4° C. for 7 days; for cell uptake of Ranibizumab mediated by polypeptide, comparison between polypeptides: molar ratio 10:1, freshly prepared
Method: as §2, with “nm. […] 10 μM of different polypeptides were mixed with 1 μM Cy5-Rani, respectively, and incubated at 4° C. for 24 h to obtain composition solutions. Before the detection, the composition solutions were incubated at 37° C. with different cells for 2 h, or the composition solutions were stored at 4° C. for 7 days and then incubated with the cells. Flow cytometer was used for detecting the mean fluorescence intensity values of cells (Ex 638 nm/Em 660 nm).” for “nm.”

[8] = rabbit, in vivo; remark: listed apart in the source
Method: Firstly, eye drops were prepared. […] The compositions were stored at 4° C. for later use. Before being used, the compositions were incubated for at least 24 h at 4° C., and kept standing at room temperature for 1 h.
Subsequently, the administration and tissue sampling protocol were determined. Healthy male rabbits each about 1 kg were selected, eyes of which were ensured to be normal by ophthalmic examination before the experiment. The experimental process follows the ethical specifications of experimental animals. […] Ocular tissue samples were taken at 1 h, 4 h, 8 h, 12 h and 24 h after the administration.
The ELISA plate coated with antigen (hVEGF-A165) was prepared, as well as the extracted tissues (total protein extraction solution of blood plasma, aqueous humor, vitreous humor and retina).
Significant differences were analyzed by 1-tailed ANOVA, corrected by Tukey's test (^nsp>0.05, *p<0.05, **p<0.01, compared to the Rani group).

Substance | increase of mean fluorescence intensity compared with free antibodies [6] [times] | mean fluorescence intensity of cells, comparison between polypeptides [6] | cell uptake of Ranibizumab mediated by polypeptide, comparison between polypeptides [6] | increase of mean fluorescence intensity compared with free antibodies [7] [times] | mean fluorescence intensity of cells, comparison between polypeptides [7] | cell uptake of Ranibizumab mediated by polypeptide, comparison between polypeptides [7] | further results
Cy5-Rani: Cy5-labeled Ranibizumab | – | – | – | – | – | – | cell uptake rate ([1]; Dynasore added): 24.4%; cell uptake rate ([1]; at 4° C.): 40.6%; cell uptake rate ([1]; chlorpromazine added): 37.8%; cell uptake rate ([1]; hypertonic sucrose added): 35.2%; cell uptake rate ([2]; Dynasore added): 31.4%; cell uptake rate ([2]; at 4° C.): 79.6%; cell uptake rate ([2]; chlorpromazine added): 63.0%; cell uptake rate ([2]; hypertonic sucrose added): 75.7%
Aflibercept | – | – | – | – | – | – | intraocular absorption after eye drop without penetratin derivative [3]: hardly absorbed
Q8W, N9W-Penetratin (RQIKIWFWWRRMKWKK) [89WP] | – | – | – | – | – | – | increase of 89WP-mediated uptake of antibody compared with free antibody [4]: 2.2-6.7 times; cell uptake of nanoantibody compared with nanoantibody alone [5]: significantly promote
Q2W, N9W-Penetratin (RWIKIWFQWRRMKWKK) [29WP] | 13.5 | still the highest | strongest capacity; also recorded: best effect | 11.1 | still the highest | best effect | –
Ranibizumab | – | – | – | – | – | – | intraocular absorption after eye drop without penetratin derivative [8]: hardly absorbed
Q2W, Q8W, N9W-Penetratin (RWIKIWFWWRRMKWKK) [289WP] | 14.7 | still the highest | strongest capacity; also recorded: best effect | 11.3 | still the highest | best effect | –

— US20230357334A1, “COMPOSITION OF DRUG AND WILD-TYPE CELL-PENETRATING PEPTIDE DERIVATIVE” (ALEPHOSON BIOPHARMACEUTICALS LTD., priority 2020, published 2023)
